According to US20250136559A1, “SMO MODULATOR COMPOUNDS” (OMASS THERAPEUTICS LIMITED, priority 2022, published 2025):

Legend:
Format in all cases: cell-based
mouse SMO^WT = target: T1, mouse SMO^WT (Mus musculus, UniProt P56726); assay: Mouse assay: Gli1 qPCR in MEF cells stably expressing mouse SMO WT; conditions: mSHh-treated, 24 hours; for IC50: Gli1 inhibition by qPCR, read-out: Mouse WT pIC50 (converted); for Mouse WT % Inh: percentage Gli1 inhibition
T1 construct: expressed in transfected cells
In short: (§1)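 MEFs stably expressing the SMO variant pre-treated with compound 1 h, then stimulated with mSHh and incubated 24 h at 37 °C. Gli1 mRNA quantified by one-step TaqMan qPCR with Gusb reference, four replicates per concentration; expressed as % Gli1 inhibition relative to mSHh-treated controls.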

mouse SMO^D473H = target: T2, mouse SMO^D473H (Mus musculus, UniProt P56726, D477H); assay: Mouse assay: Gli1 qPCR in MEF cells stably expressing mouse SMO D473H; conditions: mSHh-treated, 24 hours; for IC50: Gli1 inhibition by qPCR, read-out: Mouse D473H pIC50 (converted); for Mouse D473H % Inh: percentage Gli1 inhibition
T2 construct: expressed in transfected cells
In short: as §1

mouse SMO^W535L = target: T3, mouse SMO^W535L (Mus musculus, UniProt P56726, W539L); assay: Mouse assay: Gli1 qPCR in MEF cells stably expressing mouse SMO W535L; conditions: mSHh-treated, 24 hours; for IC50: Gli1 inhibition by qPCR, read-out: Mouse W535L pIC50 (converted); for Mouse W535L % Inh: percentage Gli1 inhibition
T3 construct: expressed in transfected cells
In short: as §1

hSMO WT = target: T4, hSMO WT (Homo sapiens, UniProt Q99835); assay: Human assay: Gli1 qPCR in MEF SMO-/- cells BacMam-transduced with hSMO WT; conditions: mSHh-treated, 24 hours; for IC50: Gli1 inhibition by qPCR, read-out: Human WT pIC50 (converted); for Human WT % Inh: percentage Gli1 inhibition
T4 construct: expressed in transfected cells; host or cells: SMO knock-out mouse embryonic fibroblasts (MEF SMO-/-), BacMam transduction
Procedure: (§2) Cell culture. All materials were purchased from Sigma-Aldrich, unless otherwise stated. SMO knock-out mouse embryonic fibroblasts (MEF^SMO−/−) were maintained in Dulbecco's modified Eagle's medium (DMEM)/high-glucose medium supplemented with 10% foetal bovine serum (FBS, Invitrogen), 50 U/mL penicillin and 5 mg/mL streptomycin (supplied as a mixture), 0.1 mMMEM Non-Essential Amino Acids (supplied as 100× solution, ThermoFisher) and 1 mM sodium pyruvate at 37° C. in a humidified 95% air/5% CO2 atmosphere.
(§3) BacMam transduction and compound treatment. MEF^SMO−/− cells were transduced with BacMam virus (MOI 1:10 in the presence of 4.2 mM valproic acid) containing either the hSMO WT or desired receptor variant sequence. Transduced cells were seeded at 6000 cells per well in a Poly-D-Lysine coated 384-well plate (Greiner) before the spent culture medium was removed on the following day and replaced with assay medium (OptiMEM (Gibco) supplemented with 50 U/mL penicillin and 5 mg/mL streptomycin (supplied as a mixture), 0.1 mMMEM Non-Essential Amino Acids (supplied as 100× solution, ThermoFisher), 1 mM sodium pyruvate and 10 mM HEPES) containing test compounds at 2.5× final assay concentrations. After 1 hour incubation, cells were treated with assay medium containing mSHh prepared at 2.5× of final assay concentrations specified in the text and incubated for a further 24 hours at 37° C. in a humidified 95% air/5% ° C.2 atmosphere prior to qPCR analysis.
(§4) Cell lysis and one-step qPCR. The Cells-to-CT™ 1-Step TaqMan® Kit was used in conjunction with TaqMan primer-probe assays for the detection of Gill (FAM, Mm00494654_m1) and Gusb (VIC, Mm01197698_m1) genes (all purchased from Life Technologies). Following 24 hours cell treatment, spent medium was removed and cells were washed with PBS before the application of lysis and stop solution as per manufacturer's instructions. The qPCR reactions were run in a 384-well PCR plate using master mix prepared according to manufacturer's instructions and cell lysate samples from treatment wells. Real-time PCR amplification was detected using the Bio-Rad CFX384 Touch PCR system. Four experimental replicates (two cell replicates and two qPCR replicates) were performed for each compound concentration tested. Real-time data were analysed using the CFX Maestro software (Bio-Rad) and obtained expression values were converted to percentage Gill inhibition by normalising to the average Gill expression of mSHh-treated control samples

human SMO D473H = target: T5, human SMO D473H (Homo sapiens, UniProt Q99835, D473H); assay: Human assay: Gli1 qPCR in MEF SMO-/- cells BacMam-transduced with hSMO D473H variant; conditions: mSHh-treated, 24 hours; for IC50: Gli1 inhibition by qPCR, read-out: Human D473H pIC50 (converted); for Human D473H % Inh: percentage Gli1 inhibition
T5 construct: expressed in transfected cells; host or cells: SMO knock-out mouse embryonic fibroblasts (MEF SMO-/-), BacMam transduction
Procedure: Cell culture. All materials were purchased from Sigma-Aldrich, unless otherwise stated.
as §3, with “concentrations.” for “concentrations. After 1 hour incubation, cells were treated with assay medium containing mSHh prepared at 2.5× of final assay concentrations specified in the text and incubated for a further 24 hours at 37° C. in a humidified 95% air/5% ° C.2 atmosphere prior to qPCR analysis.”
as §4

human SMO W535L = target: T6, human SMO W535L (Homo sapiens, UniProt Q99835, W535L); assay: Human assay: Gli1 qPCR in MEF SMO-/- cells BacMam-transduced with hSMO W535L variant; conditions: mSHh-treated, 24 hours; for IC50: Gli1 inhibition by qPCR, read-out: Human W535L pIC50 (converted); for Human W535L % Inh: percentage Gli1 inhibition
T6 construct: expressed in transfected cells; host or cells: SMO knock-out mouse embryonic fibroblasts (MEF SMO-/-), BacMam transduction
Procedure: as §2, §3, §4

T5 sequence (Q99835 28-787 D473H): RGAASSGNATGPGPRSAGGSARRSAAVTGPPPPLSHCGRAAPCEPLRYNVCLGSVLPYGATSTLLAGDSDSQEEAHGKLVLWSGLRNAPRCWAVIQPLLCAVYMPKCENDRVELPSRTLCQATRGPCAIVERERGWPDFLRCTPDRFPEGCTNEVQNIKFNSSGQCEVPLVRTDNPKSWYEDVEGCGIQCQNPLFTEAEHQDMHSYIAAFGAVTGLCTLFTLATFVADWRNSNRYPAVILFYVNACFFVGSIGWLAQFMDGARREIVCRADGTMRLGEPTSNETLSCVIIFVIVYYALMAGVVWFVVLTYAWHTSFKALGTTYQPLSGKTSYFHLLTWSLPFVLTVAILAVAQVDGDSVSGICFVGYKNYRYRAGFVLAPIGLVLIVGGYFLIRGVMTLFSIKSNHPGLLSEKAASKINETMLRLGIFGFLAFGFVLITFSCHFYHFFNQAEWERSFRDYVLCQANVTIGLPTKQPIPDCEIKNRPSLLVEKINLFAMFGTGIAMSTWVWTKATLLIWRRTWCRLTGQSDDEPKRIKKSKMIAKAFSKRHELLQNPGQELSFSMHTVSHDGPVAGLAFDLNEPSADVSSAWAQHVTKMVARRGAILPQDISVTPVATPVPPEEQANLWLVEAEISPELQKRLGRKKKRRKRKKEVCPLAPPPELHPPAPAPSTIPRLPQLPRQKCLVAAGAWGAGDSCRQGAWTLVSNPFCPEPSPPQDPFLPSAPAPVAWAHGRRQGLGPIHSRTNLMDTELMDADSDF
T3 sequence (P56726 33-793 W539L): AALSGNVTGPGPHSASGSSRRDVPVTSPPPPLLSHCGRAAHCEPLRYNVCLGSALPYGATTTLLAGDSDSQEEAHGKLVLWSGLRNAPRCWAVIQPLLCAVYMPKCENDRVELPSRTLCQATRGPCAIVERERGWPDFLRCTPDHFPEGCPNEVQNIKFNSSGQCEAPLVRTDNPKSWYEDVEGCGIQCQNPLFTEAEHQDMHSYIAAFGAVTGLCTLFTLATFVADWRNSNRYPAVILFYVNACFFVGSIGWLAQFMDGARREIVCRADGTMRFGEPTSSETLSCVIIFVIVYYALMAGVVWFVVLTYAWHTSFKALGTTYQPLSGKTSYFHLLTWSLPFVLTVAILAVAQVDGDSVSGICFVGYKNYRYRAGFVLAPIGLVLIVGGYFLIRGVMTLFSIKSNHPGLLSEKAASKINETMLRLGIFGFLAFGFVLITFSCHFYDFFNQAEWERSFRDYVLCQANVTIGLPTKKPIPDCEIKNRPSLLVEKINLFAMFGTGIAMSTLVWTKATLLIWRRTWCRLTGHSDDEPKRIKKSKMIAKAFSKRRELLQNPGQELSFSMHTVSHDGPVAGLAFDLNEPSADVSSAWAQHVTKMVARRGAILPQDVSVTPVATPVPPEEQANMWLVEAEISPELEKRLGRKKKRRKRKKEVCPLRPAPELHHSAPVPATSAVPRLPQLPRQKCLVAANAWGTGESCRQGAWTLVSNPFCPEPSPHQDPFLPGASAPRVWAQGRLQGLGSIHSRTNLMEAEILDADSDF
T4 sequence (Q99835 28-787): as the sequence (Q99835 28-787 D473H) above, with H446D counted along it
T6 sequence (Q99835 28-787 W535L): as the sequence (Q99835 28-787 D473H) above, with H446D, W508L counted along it
T1 sequence (P56726 33-793): as the sequence (P56726 33-793 W539L) above, with L507W counted along it
T2 sequence (P56726 33-793 D477H): as the sequence (P56726 33-793 W539L) above, with D445H, L507W counted along it

Compound | IC50 (mouse SMO^WT) [nM] | Mouse WT % Inh (mouse SMO^WT) [%] | IC50 (mouse SMO^D473H) [nM] | Mouse D473H % Inh (mouse SMO^D473H) [%] | IC50 (mouse SMO^W535L) [nM] | Mouse W535L % Inh (mouse SMO^W535L) [%] | IC50 (hSMO WT) [nM] | Human WT % Inh (hSMO WT) [%] | IC50 (human SMO D473H) [nM] | Human D473H % Inh (human SMO D473H) [%] | IC50 (human SMO W535L) [nM] | Human W535L % Inh (human SMO W535L) [%]
Cc1c(-c2ccc(NC(=O)c3ccc(Cl)c(CN4CCS(=O)(=O)CC4)c3)cc2)n[nH]c1C1CC1 [Example 4-22, 4-chloro-N-[4-(5-cyclopropyl-4-methyl-1H-pyrazol-3-yl)phenyl]-3-[(1,1-dioxo-1,4-thiazinan-4-yl)methyl]benzamide] | 2 | 97.0 | 5.01 | 97.6 | 3.98 | 49.2 | 1.26 | 98.6 | 100 | 111.1 | 15.8 | 89.9
O=C(Nc1ccc(-c2nc(Cc3ccc(Br)cc3)n[nH]2)cc1)c1cccc(CN2CCS(=O)(=O)CC2)c1 [Example 3-24, N-[4-[3-[(4-bromophenyl)methy]-1H-1,2,4-triazol-5-yl]phenyl]-3-[(1,1-dioxo-1,4-thiazinan-4-yl)methyl]benzamide] | 3.98 | 98.8 | 50.1 | 98.5 | 39.8 | 72.5 | 6.31 | 94 | 25.1 | 104 | 25.1 | 98.5
O=C(Nc1ccc(-c2noc(Cc3ccc(F)cc3)n2)cc1)c1cccc(CN2CCS(=O)(=O)CC2)c1 [Example 4-17, 3-[(1,1-Dioxo-1,4-thiazinan-4-yl)methyl]-N-[4-[5-[(4-fluorophenyl)methyl]-1,2,4-oxadiazol-3-yl]phenyl]benzamide] | 2 | 97.2 | 7.94 | 97.4 | 6.31 | 68.6 | 0.794 | 99.3 | 39.8 | 114.2 | 20 | 102.7

The next lines start with the values.

IC50 (mouse SMO^WT) [nM] | Mouse WT % Inh (mouse SMO^WT) [%] | IC50 (mouse SMO^D473H) [nM] | Mouse D473H % Inh (mouse SMO^D473H) [%] | IC50 (mouse SMO^W535L) [nM] | Mouse W535L % Inh (mouse SMO^W535L) [%] | IC50 (hSMO WT) [nM] | Human WT % Inh (hSMO WT) [%] | IC50 (human SMO D473H) [nM] | Human D473H % Inh (human SMO D473H) [%] | IC50 (human SMO W535L) [nM] | Human W535L % Inh (human SMO W535L) [%] | Compound
0.631 | 97.5 | 2.51 | 98.4 | 15.8 | 75.3 | 0.501 | 97.8 | 31.6 | 104.2 | 25.1 | 104.6 | Cc1oc(-c2ccc(NC(=O)c3cccc(CN4CCS(=O)(=O)CC4)c3)cc2)nc1C1CC1 [Example 4-2, N-[4-(4-Cyclopropyl-5-methyl-1,3-oxazol-2-yl)phenyl]-3-[(1,1-dioxo-1,4-thiazinan-4-yl)methyl]benzamide]
6.31 | 97.8 | 12.6 | 98.1 | 63.1 | 54.8 | 5.01 | 88.4 | 50.1 | 100.2 | 12.6 | 77.8 | CC(C)c1noc(-c2ccc(NC(=O)c3cccc(CN4CCS(=O)(=O)CC4)c3)cc2)n1 [Example 4-10, 3-[(1,1-Dioxo-1,4-thiazinan-4-yl)methyl]-N-[4-(3-propan-2-yl-1,2,4-oxadiazol-5-yl)phenyl]benzamide]
10 | 96.6 | 50.1 | 96.7 | 15.8 | 42.2 | 2 | 83.4 | 251 | 88.3 | 2.51 | 75.4 | O=C(Nc1ccc(-c2nc(C3CCCC3)n[nH]2)cc1)c1cccc(CN2CCS(=O)(=O)CC2)c1 [Example 3-5, N-[4-(3-Cyclopentyl-1H-1,2,4-triazol-5-yl)phenyl]-3-[(1,1-dioxo-1,4-thiazinan-4-yl)methyl]benzamide]
5.01 | 96.8 | 15.8 | 97.7 | 10 | 59.5 | 3.16 | 95.4 | 100 | 107.1 | 12.6 | 86.3 | O=C(Nc1ccc(-c2cc(C3CC3)n[nH]2)cc1)c1cccc(CN2CCS(=O)(=O)CC2)c1 [Example 4-19, N-[4-(5-Cyclopropyl-1H-pyrazol-3-yl)phenyl]-3-[(1,1-dioxo-1,4-thiazinan-4-yl)methyl]benzamide]
